Experimental data from the NIST ThermoML archive (doi:10.1016/j.jct.2017.07.024).

Assays:
[1] = refractive index (Na D-line) (dimensionless); details: 100 kPa, Liquid, Standard Abbe refractometry
[2] = for surface tension liquid-gas: Maximal bubble pressure; for mass density: 100 kPa, Liquid, Vibrating tube method

CCCCCCn1cc[n+](C)c1.C[C@@H](O)[C@H](N)C(=O)[O-] [1-hexyl-3-methylimidazolium DL-threoninate]
Details	mass density, [2] [kg/m3]	refractive index, [1]	surface tension liquid-gas, [2] [mN/m]
288.15 K	1089.98	1.5049	37
293.15 K	1086.67	1.5033	36.6
298.15 K	1083.36	1.5019	36.3
303.15 K	1080.02	1.5001	36
308.15 K	1076.7	1.4988	35.7
313.15 K	1073.42	1.4971	35.4
318.15 K	1069.96	1.4957	35
323.15 K	1066.82	1.494	34.7
328.15 K	1063.52	1.4925	34.4

CCCCCn1cc[n+](C)c1.C[C@@H](O)[C@H](N)C(=O)[O-] [1-pentyl-3-methylimidazolium DL-threoninate]
Details	mass density, [2] [kg/m3]	refractive index, [1]	surface tension liquid-gas, [2] [mN/m]
288.15 K	1107.7	1.508	38.2
293.15 K	1104.39	1.5065	37.8
298.15 K	1101.08	1.5048	37.6
303.15 K	1097.75	1.5032	37.2
308.15 K	1094.43	1.5018	36.9
313.15 K	1091.16	1.5001	36.6
318.15 K	1087.7	1.4987	36.2
323.15 K	1084.55	1.497	35.9
328.15 K	1081.25	1.4955	35.6

CCCn1cc[n+](C)c1.C[C@@H](O)[C@H](N)C(=O)[O-] [1-propyl-3-methylimidazolium DL-threoninate]
Details	mass density, [2] [kg/m3]	refractive index, [1]	surface tension liquid-gas, [2] [mN/m]
288.15 K	1151.33	1.5147	41.4
293.15 K	1148.8	1.5131	41.1
298.15 K	1144.52	1.5116	40.7
303.15 K	1141.13	1.5101	40.4
308.15 K	1137.76	1.5086	40.1
313.15 K	1134.38	1.5071	39.8
318.15 K	1130.9	1.5055	39.4
323.15 K	1127.5	1.5039	39.1
328.15 K	1124.07	1.5026	38.7
